Values joined by “and” are separate entries in the source; they are usually repeats but may differ in a detail not shown here. Equal entries are not always repeated.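 Interpolation was linear, between the two tested concentrations surrounding the appropriate level; five concentrations were tested over 48 hours in 96-well plates. At the GI50, growth is halved. TGI: concentration producing complete growth inhibition.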
Assays:
Assay in all cases: NCI tumour cell line growth inhibition, 48 h
HCC-2998 colon = system: HCC-2998 colon
DLD-1 colon = system: DLD-1 colon
SNB-19 CNS = system: SNB-19 CNS
K-562 leukemia = system: K-562 leukemia
HOP-92 NSCLC = system: HOP-92 NSCLC
KM20L2 colon = system: KM20L2 colon
SK-MEL-2 melanoma = system: SK-MEL-2 melanoma
U251 CNS = system: U251 CNS
OVCAR-5 ovarian = system: OVCAR-5 ovarian
NCI-H522 lung = system: NCI-H522 lung
P388/ADR leukemia = system: P388/ADR leukemia
TK-10 renal = system: TK-10 renal
OVCAR-3 ovarian = system: OVCAR-3 ovarian
LOX IMVI melanoma = system: LOX IMVI melanoma
SN12K1 renal = system: SN12K1 renal
M19-MEL melanoma = system: M19-MEL melanoma
P388 leukemia = system: P388 leukemia
M14 melanoma = system: M14 melanoma
NCI/ADR-RES ovarian = system: NCI/ADR-RES ovarian
HCT-116 colon = system: HCT-116 colon
XF 498 CNS = system: XF 498 CNS
ACHN renal = system: ACHN renal
LXFL 529 NSCLC = system: LXFL 529 NSCLC
PC-3 prostate = system: PC-3 prostate
T-47D breast = system: T-47D breast
HOP-18 NSCLC = system: HOP-18 NSCLC
DMS 273 small cell lung = system: DMS 273 small cell lung
SNB-78 CNS = system: SNB-78 CNS
A498 renal = system: A498 renal
CAKI-1 renal = system: CAKI-1 renal
DMS 114 small cell lung = system: DMS 114 small cell lung
UACC-62 melanoma = system: UACC-62 melanoma

## CCC1(O)CC(OC2CC(N(C)C)C(OC3CC4OC5CC(=O)C(C)OC5OC4C(C)O3)C(C)O2)c2c(cc3c(c2O)C(=O)c2c(O)ccc(O)c2C3=O)C1C(=O)OC (stereo not drawn)
HCC-2998 colon
  GI50: 0.021 µM and 0.01 µM
  TGI: 0.0607 µM and 0.0199 µM and < 0.0465 µM
DLD-1 colon
  GI50: 0.00984 µM
  TGI: 0.69 µM and 0.13 µM
SNB-19 CNS
  TGI: 0.117 µM and 0.245 µM and 1.17 µM
K-562 leukemia
  GI50: 0.000761 µM and 0.00754 µM
HOP-92 NSCLC
  TGI: 0.0828 µM and 0.0644 µM
KM20L2 colon
  GI50: 0.00351 µM and 0.0075 µM
  TGI: 0.356 µM and 0.0462 µM and 0.0889 µM
SK-MEL-2 melanoma
  GI50: 0.00919 µM and 0.00439 µM and 0.00879 µM
  TGI: 0.0309 µM and 0.0149 µM and 0.0148 µM
U251 CNS
  GI50: 0.00486 µM and 0.00785 µM and < 0.0121 µM
OVCAR-5 ovarian
  GI50: 0.00138 µM and 0.00225 µM and 0.00943 µM
NCI-H522 lung
  GI50: 0.00111 µM and 0.00788 µM
  TGI: 0.0319 µM and 0.0122 µM and 0.0182 µM
P388/ADR leukemia
  GI50: 0.0075 µM
  TGI: 0.008 µM and < 0.0451 µM
TK-10 renal
  GI50: 0.0168 µM and 0.00314 µM
OVCAR-3 ovarian
  GI50: 0.00656 µM and 0.00711 µM
  TGI: 0.0789 µM and 0.0232 µM and < 0.0174 µM
LOX IMVI melanoma
  GI50: 0.00915 µM
SN12K1 renal
  GI50: 0.00862 µM
  TGI: 0.0369 µM and 0.0325 µM
M19-MEL melanoma
  TGI: 0.0705 µM and 0.0241 µM
P388 leukemia
  GI50: 0.0075 µM
  TGI: 0.00422 µM and 0.00817 µM
M14 melanoma
  GI50: 0.0245 µM
NCI/ADR-RES ovarian
  GI50: 0.00629 µM and 0.0109 µM and < 0.0105 µM
  TGI: 0.0943 µM and 0.224 µM and 0.171 µM
HCT-116 colon
  TGI: 0.0238 µM and 0.126 µM and 0.0875 µM
XF 498 CNS
  GI50: 0.00256 µM
  TGI: 0.0199 µM and 0.0103 µM
ACHN renal
  GI50: 0.000823 µM
LXFL 529 NSCLC
  TGI: 1.18 µM
PC-3 prostate
  TGI: 0.0576 µM and 0.15 µM
T-47D breast
  TGI: 0.0172 µM and 0.0152 µM
HOP-18 NSCLC
  GI50: 0.00875 µM and 0.0163 µM
  TGI: 0.0821 µM and 0.0764 µM
DMS 273 small cell lung
  GI50: 0.0075 µM
  TGI: 0.0342 µM and 0.0217 µM
SNB-78 CNS
  GI50: 0.0126 µM
  TGI: 0.854 µM and 0.536 µM
A498 renal
  GI50: 0.00459 µM
  TGI: 0.016 µM
CAKI-1 renal
  GI50: 0.00251 µM and 0.00763 µM
DMS 114 small cell lung
  TGI: 0.0431 µM and 0.0473 µM
UACC-62 melanoma
  GI50: 0.00479 µM and 0.00857 µM
  TGI: 0.0164 µM and 0.0136 µM

— PubChem BioAssay (NCI)
